Assay results as given in PubChem BioAssay (NCI).
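Each compound was tested at five concentrations against cells in 96-well plates for 48 hours. GI50 is the concentration that inhibits growth by half. The concentration for full growth arrest is given as TGI.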

Key:
Test in all cases: DTP human tumour cell line panel, 48 h
EKVX NSCLC = tested on: EKVX NSCLC
TK-10 renal = tested on: TK-10 renal
NCI-H460 lung = tested on: NCI-H460 lung
HOP-92 NSCLC = tested on: HOP-92 NSCLC
MOLT-4 leukemia = tested on: MOLT-4 leukemia
UO-31 renal = tested on: UO-31 renal
SNB-75 CNS = tested on: SNB-75 CNS
RXF 393 renal = tested on: RXF 393 renal
A549 NSCLC = tested on: A549 NSCLC
KM12 colon = tested on: KM12 colon
SK-MEL-2 melanoma = tested on: SK-MEL-2 melanoma
RPMI-8226 leukemia = tested on: RPMI-8226 leukemia
SF-539 CNS = tested on: SF-539 CNS
OVCAR-8 ovarian = tested on: OVCAR-8 ovarian
786-0 renal = tested on: 786-0 renal
HOP-62 NSCLC = tested on: HOP-62 NSCLC
CCRF-CEM leukemia = tested on: CCRF-CEM leukemia
UACC-62 melanoma = tested on: UACC-62 melanoma

Q: With `CCOc1cc2c(cc1O)/C(=N/NS(=O)(=O)c1ccc(C)cc1)C[C@@H]1[C@@H]2CC[C@]2(C)[C@@H](O)CC[C@@H]12` as the molecule, how does the TGI (EKVX NSCLC) read?
A: > 100 µM

Q: What about the TGI (TK-10 renal) of the same molecule?
A: > 100 µM

Q: What about the TGI (NCI-H460 lung) of the same molecule?
A: > 100 µM

Q: What about the TGI (HOP-92 NSCLC) of the same molecule?
A: > 100 µM

Q: And the TGI (MOLT-4 leukemia)?
A: 7.04 µM

Q: What about the TGI (UO-31 renal) of the same molecule?
A: > 100 µM

Q: And the TGI (SNB-75 CNS)?
A: 67.7 µM

Q: What about the TGI (RXF 393 renal) of the same molecule?
A: > 100 µM

Q: And the TGI (A549 NSCLC)?
A: > 100 µM

Q: What about the TGI (KM12 colon) of the same molecule?
A: > 100 µM

Q: And the TGI (SK-MEL-2 melanoma)?
A: > 100 µM

Q: And the TGI (RPMI-8226 leukemia)?
A: 16 µM

Q: What about the TGI (SF-539 CNS) of the same molecule?
A: 65.6 µM

Q: What about the TGI (OVCAR-8 ovarian) of the same molecule?
A: > 100 µM

Q: And the TGI (786-0 renal)?
A: > 100 µM

Q: And the GI50 (HOP-62 NSCLC)?
A: 5.14 µM

Q: What about the TGI (HOP-62 NSCLC) of the same molecule?
A: > 100 µM

Q: What about the TGI (CCRF-CEM leukemia) of the same molecule?
A: > 100 µM

Q: What does the source list for `COC(=O)CC(=O)Nc1sccc1S(=O)(=O)c1ccccc1`?
A: TGI (UACC-62 melanoma): > 100 µM; TGI (EKVX NSCLC): > 100 µM; TGI (TK-10 renal): > 100 µM; TGI (NCI-H460 lung): > 100 µM; TGI (HOP-92 NSCLC): > 100 µM; TGI (MOLT-4 leukemia): > 100 µM; TGI (UO-31 renal): > 100 µM; TGI (SNB-75 CNS): > 100 µM; TGI (RXF 393 renal): > 100 µM; TGI (A549 NSCLC): > 100 µM; TGI (KM12 colon): > 100 µM; TGI (SK-MEL-2 melanoma): > 100 µM; TGI (RPMI-8226 leukemia): > 100 µM; TGI (SF-539 CNS): > 100 µM; TGI (OVCAR-8 ovarian): > 100 µM; TGI (786-0 renal): > 100 µM; TGI (CCRF-CEM leukemia): > 100 µM

Q: With `CS/C(C)=N/OC(=O)NCCCCNc1ccc(N=[N+]=[N-])cc1` as the molecule, how does the TGI (UACC-62 melanoma) read?
A: 89.4 µM

Q: And the TGI (EKVX NSCLC)?
A: > 100 µM

Q: And the TGI (TK-10 renal)?
A: > 100 µM

Q: And the TGI (NCI-H460 lung)?
A: > 100 µM

Q: And the TGI (HOP-92 NSCLC)?
A: > 100 µM

Q: And the TGI (MOLT-4 leukemia)?
A: > 100 µM

Q: And the TGI (UO-31 renal)?
A: 82.4 µM

Q: What about the TGI (SNB-75 CNS) of the same molecule?
A: > 100 µM

Q: And the TGI (RXF 393 renal)?
A: > 100 µM

Q: And the TGI (A549 NSCLC)?
A: > 100 µM

Q: What about the TGI (KM12 colon) of the same molecule?
A: > 100 µM

Q: What about the TGI (RPMI-8226 leukemia) of the same molecule?
A: > 100 µM

Q: And the TGI (SF-539 CNS)?
A: > 100 µM

Q: And the TGI (OVCAR-8 ovarian)?
A: > 100 µM

Q: What about the TGI (786-0 renal) of the same molecule?
A: > 100 µM

Q: What about the TGI (HOP-62 NSCLC) of the same molecule?
A: > 100 µM

Q: And the TGI (CCRF-CEM leukemia)?
A: > 100 µM

Q: How did the TGI (UACC-62 melanoma) turn out when `Cc1ccc(S(=O)(=O)NNC2(NS(=O)(=O)c3ccc(Cl)cc3)C(Cl)=C(Cl)C(=O)c3ccccc32)cc1` (centres undefined) was run?
A: 31 µM

Q: What about the TGI (EKVX NSCLC) of the same molecule?
A: 28.9 µM

Q: And the TGI (TK-10 renal)?
A: 30.5 µM

Q: What about the TGI (NCI-H460 lung) of the same molecule?
A: 38.1 µM

Q: What about the TGI (HOP-92 NSCLC) of the same molecule?
A: 41.6 µM

Q: What about the TGI (MOLT-4 leukemia) of the same molecule?
A: > 100 µM

Q: What about the TGI (UO-31 renal) of the same molecule?
A: 42.5 µM

Q: And the TGI (RXF 393 renal)?
A: 31.1 µM

Q: What about the TGI (A549 NSCLC) of the same molecule?
A: 34.2 µM

Q: And the TGI (KM12 colon)?
A: 35.2 µM

Q: What about the TGI (SK-MEL-2 melanoma) of the same molecule?
A: 50.6 µM

Q: What about the TGI (RPMI-8226 leukemia) of the same molecule?
A: 67 µM

Q: And the TGI (SF-539 CNS)?
A: 48.8 µM

Q: What about the TGI (OVCAR-8 ovarian) of the same molecule?
A: 87.8 µM

Q: And the TGI (786-0 renal)?
A: 28.2 µM

Q: What about the TGI (HOP-62 NSCLC) of the same molecule?
A: 54.8 µM

Q: And the TGI (CCRF-CEM leukemia)?
A: 63 µM

Q: For `CCOc1ccc(NCC2CC/C(=C\c3ccc(O)cc3)C2=O)cc1` (centres undefined), which TGI (UACC-62 melanoma) is on record?
A: 37.7 µM

Q: What about the TGI (EKVX NSCLC) of the same molecule?
A: 39.5 µM

Q: And the TGI (TK-10 renal)?
A: 26.2 µM

Q: And the TGI (NCI-H460 lung)?
A: 54.2 µM

Q: What about the TGI (HOP-92 NSCLC) of the same molecule?
A: 30 µM

Q: What about the TGI (MOLT-4 leukemia) of the same molecule?
A: > 38.4 µM

Q: And the TGI (UO-31 renal)?
A: 33.6 µM

Q: And the TGI (SNB-75 CNS)?
A: 27.8 µM

Q: And the TGI (RXF 393 renal)?
A: 32.7 µM

Q: What about the TGI (A549 NSCLC) of the same molecule?
A: 48.6 µM

Q: And the TGI (KM12 colon)?
A: 26.8 µM

Q: And the TGI (RPMI-8226 leukemia)?
A: > 25.3 µM

Q: What about the TGI (SF-539 CNS) of the same molecule?
A: 36.1 µM

Q: What about the TGI (OVCAR-8 ovarian) of the same molecule?
A: 34.4 µM

Q: What about the TGI (786-0 renal) of the same molecule?
A: 18 µM

Q: What about the TGI (HOP-62 NSCLC) of the same molecule?
A: > 67.1 µM

Q: And the TGI (CCRF-CEM leukemia)?
A: 49 µM

Q: Which results are given for `O=C(NCCc1ccccc1)c1c(O)c2ccccc2[nH]c1=O`?
A: TGI (EKVX NSCLC): > 100 µM; TGI (TK-10 renal): > 100 µM; TGI (NCI-H460 lung): > 100 µM; TGI (HOP-92 NSCLC): > 100 µM; TGI (MOLT-4 leukemia): > 100 µM; TGI (UO-31 renal): > 100 µM; TGI (SNB-75 CNS): > 100 µM; TGI (RXF 393 renal): > 100 µM; TGI (A549 NSCLC): > 100 µM; TGI (KM12 colon): > 100 µM; TGI (RPMI-8226 leukemia): > 100 µM; TGI (SF-539 CNS): > 100 µM; TGI (OVCAR-8 ovarian): > 100 µM; TGI (786-0 renal): > 100 µM; TGI (HOP-62 NSCLC): > 100 µM; TGI (CCRF-CEM leukemia): > 100 µM

Q: Which TGI (UACC-62 melanoma) does the source give for `O=C(Cc1ccccc1)NCCCN(CCCCN(CCCNC(=O)Cc1ccccc1)C(=O)OCc1ccccc1)C(=O)OCc1ccccc1` here?
A: > 100 µM

Q: And the TGI (EKVX NSCLC)?
A: > 100 µM

Q: What about the TGI (TK-10 renal) of the same molecule?
A: > 100 µM

Q: What about the TGI (NCI-H460 lung) of the same molecule?
A: > 100 µM

Q: And the TGI (HOP-92 NSCLC)?
A: > 100 µM

Q: What about the TGI (MOLT-4 leukemia) of the same molecule?
A: > 100 µM

Q: And the TGI (UO-31 renal)?
A: 6.42 µM

Q: And the TGI (RXF 393 renal)?
A: > 100 µM

Q: What about the TGI (A549 NSCLC) of the same molecule?
A: > 100 µM

Q: And the TGI (KM12 colon)?
A: > 100 µM

Q: And the TGI (SK-MEL-2 melanoma)?
A: > 100 µM

Q: What about the TGI (RPMI-8226 leukemia) of the same molecule?
A: > 100 µM

Q: And the TGI (SF-539 CNS)?
A: > 100 µM

Q: And the TGI (OVCAR-8 ovarian)?
A: > 100 µM

Q: What about the TGI (786-0 renal) of the same molecule?
A: > 100 µM

Q: And the TGI (HOP-62 NSCLC)?
A: > 100 µM

Q: What about the TGI (CCRF-CEM leukemia) of the same molecule?
A: > 29.5 µM
